Test results reported in patent publication US20170246144A1, “METHOD OF PREVENTING OR TREATING SPINOCEREBELLAR ATAXIA BY ADMINISTRATING SILIBININ” (National Taiwan Normal University, priority 2016, published 2017).
Like-named read-outs stand apart in the source and are kept apart here.

What was measured:
nTBP/Q79-EGFP cells [1] = assay: Dot blot and western blotting of protein aggregation, anti-TBP (N12); type: cell-based, Human; conditions: 15 μM, Dox 5 days
Procedure: FIGS. 9A-9C show the effects of SB on protein aggregation in nTBP/Q79-EGFP cells after the induction of Dox, which were analyzed by western blotting and dot blot assays. 1.0×10^6 nTBP/Q36-EGFP cells or nTBP/Q79-EGFP cells were pretreated with 15 μM SB for 1 hour followed by the treatment of 10 μg/mL Dox. Cell lysates were analyzed using western blotting and dot blot assays with anti-TBP (N12) antibody. […] The values represent means±SD. Data were the mean values of three independent experiments.
In the present example, dot blot and western blotting methods were used to analyze whether silibinin can reduce the protein aggregation in nTBP/Q79-EGFP cells induced by Dox.
nTBP/Q36-EGFP cells and nTBP/Q79-EGFP cells were cultured in 6 cm petri-dish for 24 hours followed by the treatment of 15 μM silibinin for 1 hour and the treatment of […] and 10 μM RA for 5 days. The proteins were extracted from the treated cells and analyzed by dot blot and western blotting, wherein the primary antibody is TBP(N-12) antibody and the secondary antibody is HRP conjugated anti-rabbit antibody.

SCA17 transgenic mice [2] = assay: Rotarod test in SCA17 transgenic mice; type: in vivo; conditions: 4.5 mg/kg i.p. once every 2 days from 8 weeks old
Procedure: (§1) FIGS. 10A-10F show the effects of SB on the body weight and motor performance in SCA17 transgenic mice. Mice were grouped into wild type-saline (WT-saline), transgenic-saline (TG-saline), and transgenic-SB treatment (TG-SB) groups. Mice were injected intraperitoneally with saline or SB (4.5 mg/kg) at 8-week old once every 2 days. […] FIG. 10E and FIG. 10F show respectively the stride length of front-limb/hind-limb at the right-side and the left-side. The values represent means±SD, n=6. *p<0.05, comparing to the TG-saline group.
(§2) Since the SCA17 mice were 8 weeks old, the mice were injected intraperitoneally with silibinin in saline at 4.5 mg/kg once every 2 days, designated as TG_SB group. The mice in TG_saline group were injected with same amount of saline.
At the 10th week, the rotarod test was performed to measure the motor coordination of the mice. The mice were trained prior to drug treatment. The mouse was placed on the rotarod with acceleration from 2 to 20 rpm for 5 minutes maintaining at 20 rpm for 5 more minutes to establish the baseline of the behavior of the mouse.
The condition was maintained at a linear acceleration from 4 to 30 rpm within 5 minutes during the testing period. The rotarod test was performed once every 2 weeks, since the mouse was 10 weeks old till 20 weeks old. […] The latency of fall was recorded. […]

SH-SY5Y cells [3] = assay: Western blotting of Bax and Bcl-2 after MSG; type: cell-based, Human; conditions: 15 μM, 100 mM MSG, 6 hours
Procedure: The levels of Bax and Bcl-2 in 1×10^6 SH-SY5Y cells were measured by western blotting, wherein the control group (Ctrl) was untreated SH-SY5Y cells or the cells were treated with 100 mM MSG, 100 mM MSG+15 μM SB or 100 mM MSG+10 μM MK801 (MK) for 6 hours. Actin was used as a loading control.
In present embodiment, western blotting was performed to study whether silibinin protects SH-SY5Y cell from apoptosis due to glutamatergic excitotoxicity via mitochondria-dependent apoptosis pathway.
It is known that the reduction of Bcl-2 level and the increases of Bax level are related to the increases of free calcium ion in cytosol. Bcl-2 is a cell-survival protein and Bax is a pro-apoptotic protein and they both mediate the releases of cytochrome C from mitochondria. Therefore, Bcl-2 and Bax are used as indicators in the present embodiment.

SCA17 transgenic mice [4] = assay: Footprint pattern analysis in SCA17 transgenic mice; type: in vivo; conditions: 4.5 mg/kg i.p. once every 2 days
Procedure: as §1, §2
In addition, footprint pattern analysis was conducted to observe any abnormity of the gait of the mice. Such test was conducted widely to determine motor skill, coordination and balance. The hindfeet and forefeet of the mouse were coated with red and blue nontoxic paint respectively, and the mouse was allowed to walk along a runway on a fresh sheet of white paper. The distance between the centers of the hind footprint and the fore footprint, the length of the step, and the parallel distance were measured for a continuous 6 steps, excluding the steps in the beginning and at the end. The test was performed once every half month.

nTBP/Q79-EGFP cells [5] = assay: Western blotting of caspase family proteins in Dox-induced nTBP/Q79-EGFP cells; type: cell-based; conditions: Homo sapiens, 120 h, Dox 5 days
Procedure: FIGS. 8A-8C show the effects of SB on improving the viability of nTBP/Q79-EGFP cells and inhibiting the expression levels of cleaved caspase-9, cleaved caspase-3, and cleaved PARP in nTBP/Q79-EGFP cells induced by doxycycline (Dox). FIG. 8A: The viabilities of 1.0×10^6 nTBP/Q36-EGFP cells and nTBP/Q79-EGFP cells which were pretreated with 15 μM SB for 1 hour followed by the induction of Dox for 1, 3, and 5 days were measured by MTT assay. FIG. 8B: 1.0×10^6 nTBP/Q36-EGFP cells and nTBP/Q79-EGFP cells were pretreated with 15 μM SB for 1 hour followed by the induction of Dox for 5 days. The levels of cleaved caspase-9, cleaved caspase-3, and cleaved PARP were detected by western blotting. Actin was used as a loading control. […] The results were shown as mean±SD, n=3, *p<0.05, comparing to the Dox group.
Western blotting was used to determine whether silibinin can inhibit cell death due to the expression of nTBP/Q79-EGFP via caspase-dependent apoptosis pathway.
nTBP/Q36-EGFP cells and nTBP/Q79-EGFP cells were treated with 15 μM silibinin for 1 hour followed by the treatment of 10 μg/mL Dox and RA for 5 days.

SH-SY5Y cells [6] = assay: Annexin V-FITC/PI flow cytometry, apoptosis induced by MSG; type: cell-based, Human; conditions: 15 μM, 100 mM MSG, 24 hours
Procedure: 1×10^6 SH-SY5Y cells were treated with 100 mM MSG and 15 μM SB or 10 μM MK801 (MK) for 24 hours. Cells were stained with Annexin-V/PI and the apoptosis was measured with a flow cytometry.
In order to detect the effects of silibinin in inhibiting the apoptosis induced by glutamate in SH-SY5Y cells. The cells were measured by flow cytometry using Annexin V-FITC/propidium iodide (PI) double-labeling method.
SH-SY5Y cells were seeded in dish and were treated with 100 mM MSG in combination of 15 μM silibinin or 10 μM MK801 for 24 hours. The cells were then trypsinized and collected by centrifugation at 2,000 rpm for […] followed by double-staining with Annexin V-FITC and PI. Stained cells were analyzed with a flow cytometry (FACS Sorter, Becton, Dickinson and Company). 10,000 cells were recorded in each experiment.

COc1cc(C2Oc3cc([C@H]4Oc5cc(O)cc(O)c5C(=O)[C@@H]4O)ccc3OC2CO)ccc1O (some centres unmarked) [silibinin]
reduction of protein aggregation, dot blot (nTBP/Q79-EGFP cells [1]): 67%
reduction of protein aggregation, western blotting (nTBP/Q79-EGFP cells [1]): 90%
average time of the latency of fall, rotarod (SCA17 transgenic mice [2]): 393 ± 36 s
increase of Bcl-2 level, compared to MSG only (SH-SY5Y cells [3]): approximately 167%
reduction of Bax level, compared to MSG only (SH-SY5Y cells [3]): 80%
overlapped length of footprints, left-paw (SCA17 transgenic mice [4]): 0.8±0.1 cm
overlapped length of footprints, right-paw (SCA17 transgenic mice [4]): 1.1±0.1 cm
inhibition at 15 µM (nTBP/Q79-EGFP cells [5]; read-out: inhibition of cleaved-PARP level): ~44%
inhibition at 15 µM (nTBP/Q79-EGFP cells [5]; read-out: inhibition of cleaved-caspase-3 level): ~100%
inhibition at 15 µM (nTBP/Q79-EGFP cells [5]; read-out: inhibition of cleaved-caspase-9 level): ~88%
apoptosis (apoptotic cells) (SH-SY5Y cells [6]): 9.04%
